# Assay results as given in patent US20120149625A1, “Detergent Composition” (Novozymes A/S, priority 2009, published 2012).
# Where two headings read alike, the source gives them in different places. Residues, ends and D or L forms follow the SMILES beside them. *: point of attachment. Cbz = O=C(OCc1ccccc1)*
# What was measured:
# Savinase [1] = biological target: T1, Savinase (Lederbergia lenta, UniProt P29600); experiment: AMSA laundry detergency, powder detergent, various inhibitors (Example 1); conditions: 30 nM protease, 40° C., 15° dH
# T1 sequence (P29600 1-269): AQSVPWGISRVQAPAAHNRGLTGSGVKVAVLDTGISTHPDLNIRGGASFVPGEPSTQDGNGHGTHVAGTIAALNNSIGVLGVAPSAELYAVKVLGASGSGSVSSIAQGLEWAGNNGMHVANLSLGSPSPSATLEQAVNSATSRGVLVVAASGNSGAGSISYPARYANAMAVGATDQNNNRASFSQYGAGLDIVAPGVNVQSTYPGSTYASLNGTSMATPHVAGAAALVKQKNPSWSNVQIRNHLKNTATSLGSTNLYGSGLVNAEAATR
# Savinase [2] = biological target: T1, Savinase; experiment: biochemical; conditions: substrate SucAAPF-pNA, 0,1M TRIS pH 9.0, 25° C., [E]0=6E-09 M, read-out: inhibition constant Ki
# Protease 10R = experiment: Washing test in commercial liquid detergents (Example 4); conditions: Liquid detergent Commercial 1; inhibitor:protease molar ratio 5:1; 20 min, 20° C., 15° dH
# Description: (§1) Washing tests were made in detergents with a protease and an inhibitor. Washing conditions were 20 minutes washing at 20° C. and 15° dH. The protease was Savinase at 30 nM. The inhibitor was inhibitor Z-GAY-H at various molar ratios. The results are shown as detergency with the inhibitor relative to detergency at the same conditions without the inhibitor:
# (§2) Two commercial liquid detergents purchased in England were tested with inhibitor:protease molar ratio of 5:1. Protease 10R is described in WO 88/03947. Protease PD138 is described in […]
# Protease PD138 = experiment: as above; conditions: Liquid detergent Commercial 1; inhibitor:protease molar ratio 5:1; 20 min, 20° C., 15° dH
# Description: as §1, §2
# Savinase [3] = biological target: T1, Savinase; experiment: AMSA laundry detergency, laundry liquid model detergent, various inhibitors (Example 2); conditions: 30 nM Savinase, 20° C., 15° dH, inhibitor dosering 5, None = 100%
# Description: Model detergents and test materials for laundry were as follows:
# After washing the textiles were flushed in tap water and dried.
# Detergency was determined with various inhibitors in the laundry liquid model detergent with 30 nM protease (Savinase). Washing was done at 20° C. and water hardness 15° dH with test swatches EMPA117EH.
# [4] = biological target: Savinase variant Y167A + R170S + A194P (Lederbergia lenta, UniProt P29600, A188P/R164S/Y161A); conditions: Powder Detergent 2 at 2.5 g/L, 30 nM Savinase variant Y167A + R170S + A194P, 20° C., 15° dH
# Savinase variant S99SE = Savinase variant S99SE (Lederbergia lenta, UniProt P29600, INS97E); conditions: Powder Detergent 2 at 2.5 g/L, 30 nM Savinase variant S99SE, 20° C., 15° dH
# Alcalase [5] = biological target: T2, Alcalase (Bacillus licheniformis, UniProt P00780); experiment: AMSA laundry detergency, powder detergent, various inhibitors (Example 1); conditions: 30 nM protease, 40° C., 15° dH, inhibitor dosage 5, None = 100%
# T2 construct: purchased Novozymes A/S
# T2 sequence (P00780 106-379): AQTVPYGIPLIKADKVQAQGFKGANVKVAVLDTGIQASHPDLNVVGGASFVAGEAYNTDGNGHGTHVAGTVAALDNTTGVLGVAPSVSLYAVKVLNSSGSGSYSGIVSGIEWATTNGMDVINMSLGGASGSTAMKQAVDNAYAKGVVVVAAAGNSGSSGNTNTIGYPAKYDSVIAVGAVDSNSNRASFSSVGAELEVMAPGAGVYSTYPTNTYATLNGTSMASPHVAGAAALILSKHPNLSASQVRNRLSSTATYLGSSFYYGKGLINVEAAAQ
# Alcalase [6] = biological target: T2, Alcalase; experiment: Washing test with protease and inhibitor at various molar ratios (Example 4); conditions: 30 nM Alcalase, 20° C., 15° dH
# Savinase [7] = biological target: T1, Savinase; experiment: as above; conditions: 20° C., 15° dH
# Description: as §1, with “The protease was Savinase at 30 nM.” left out
# The detergent was a powder detergent with the following composition at 2.5 g/L.
# 20.05 g Na-citrate dehydrate
# The liquid detergent described under the AMSA assay was used.
# The powder detergent described under the AMSA assay was used.
# [8] = inhibitor:protease molar ratio 500, None = 100%
# [9] = molar ratio not given, None = 100%
# [10] = inhibitor:protease molar ratio 5, None = 100%
# Sequence of Savinase variant Y167A + R170S + A194P (P29600 whole entry Y161A/R164S/A188P): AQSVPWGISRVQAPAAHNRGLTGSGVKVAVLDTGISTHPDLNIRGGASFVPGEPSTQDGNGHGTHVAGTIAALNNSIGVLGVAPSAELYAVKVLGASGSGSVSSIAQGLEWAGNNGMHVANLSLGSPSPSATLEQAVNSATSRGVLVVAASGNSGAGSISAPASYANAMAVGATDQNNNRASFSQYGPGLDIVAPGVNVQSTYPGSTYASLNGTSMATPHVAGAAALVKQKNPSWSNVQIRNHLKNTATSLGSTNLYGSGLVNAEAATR
# Sequence of Savinase variant S99SE (P29600 other isoform, or with tags, fused parts or gaps INS97E): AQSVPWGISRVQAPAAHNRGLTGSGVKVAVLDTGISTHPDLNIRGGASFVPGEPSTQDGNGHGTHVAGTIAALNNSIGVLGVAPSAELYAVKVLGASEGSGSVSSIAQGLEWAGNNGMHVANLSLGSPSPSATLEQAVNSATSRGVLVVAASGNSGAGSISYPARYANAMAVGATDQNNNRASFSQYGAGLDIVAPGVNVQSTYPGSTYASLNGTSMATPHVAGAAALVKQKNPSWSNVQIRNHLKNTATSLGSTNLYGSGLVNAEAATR
smiles,measurement,setting,value
"O=Cc1ccc(B(O)O)cc1 [Inhibitor 4-FPBA, 4-formyl-phenyl-boronic acid]",CS-37 % performance,Savinase [1]; [8],128%
same,EMPA117EH % performance,Savinase [1]; [8],107%
same,CS-37 % performance,Savinase [1]; [9],137%
same,EMPA117EH % performance,Savinase [1]; [9],111%
C[C@H](NC(=O)CNC(=O)OCc1ccccc1)C(=O)N[C@H](C=O)Cc1ccc(O)cc1 [Z-GAY-H] (Cbz-Gly-Ala-Tyr-aldehyde),Ki,Savinase [2],7.4 nM
same,Detergency increase,Protease 10R,107%
same,Detergency increase,Protease PD138,107%
same,EMPA117EH % performance increase,Savinase [3],114%
same,detergency with the inhibitor relative to without,[4]; molar ratio 1.5,100%
same,detergency with the inhibitor relative to without,[4]; molar ratio 3,107%
same,detergency with the inhibitor relative to without,[4]; molar ratio 5,107%
same,CS-37 % performance,Savinase [1]; [10],242%
same,EMPA117EH % performance,Savinase [1]; [10],117%
same,detergency with the inhibitor relative to without,Savinase variant S99SE; molar ratio 1.5,100%
same,detergency with the inhibitor relative to without,Savinase variant S99SE; molar ratio 3,103%
same,detergency with the inhibitor relative to without,Savinase variant S99SE; molar ratio 5,106%
same,CS-37 % performance,Alcalase [5],147%
same,EMPA117EH % performance,Alcalase [5],108%
same,detergency with the inhibitor relative to without,"Alcalase [6]; Liquid Detergent (AMSA model), molar ratio 1.5",145%
same,detergency with the inhibitor relative to without,"Alcalase [6]; Liquid Detergent (AMSA model), molar ratio 3",169%
same,detergency with the inhibitor relative to without,"Alcalase [6]; Liquid Detergent (AMSA model), molar ratio 5",146%
same,detergency with the inhibitor relative to without,"Alcalase [6]; Liquid Detergent (AMSA model), molar ratio 7.5",149%
same,detergency with the inhibitor relative to without,"Alcalase [6]; Liquid Detergent (AMSA model), molar ratio 10",147%
same,detergency with the inhibitor relative to without,"Alcalase [6]; Powder Detergent 2 at 2.5 g/L, molar ratio 3",103%
same,detergency with the inhibitor relative to without,"Alcalase [6]; Powder Detergent 2 at 2.5 g/L, molar ratio 5",113%
same,detergency with the inhibitor relative to without,"Alcalase [6]; Powder Detergent 2 at 2.5 g/L, molar ratio 7.5",116%
same,detergency with the inhibitor relative to without,"Alcalase [6]; Powder Detergent 2 at 2.5 g/L, molar ratio 10",119%
same,detergency with the inhibitor relative to without,"Savinase [7]; Liquid Detergent (AMSA model), 30 nM Savinase, molar ratio 1.5",114%
same,detergency with the inhibitor relative to without,"Savinase [7]; Liquid Detergent (AMSA model), 30 nM Savinase, molar ratio 3",109%
same,detergency with the inhibitor relative to without,"Savinase [7]; Liquid Detergent (AMSA model), 30 nM Savinase, molar ratio 5",108%
same,detergency with the inhibitor relative to without,"Savinase [7]; Powder Detergent 1 (AMSA model), 10 nM Savinase, molar ratio 0.5",112%
same,detergency with the inhibitor relative to without,"Savinase [7]; Powder Detergent 1 (AMSA model), 10 nM Savinase, molar ratio 1",108%
same,detergency with the inhibitor relative to without,"Savinase [7]; Powder Detergent 1 (AMSA model), 10 nM Savinase, molar ratio 1.5",111%
same,detergency with the inhibitor relative to without,"Savinase [7]; Powder Detergent 1 (AMSA model), 10 nM Savinase, molar ratio 2",121%
same,detergency with the inhibitor relative to without,"Savinase [7]; Powder Detergent 1 (AMSA model), 10 nM Savinase, molar ratio 3",118%
same,detergency with the inhibitor relative to without,"Savinase [7]; Powder Detergent 1 (AMSA model), 10 nM Savinase, molar ratio 5",118%
same,detergency with the inhibitor relative to without,"Savinase [7]; Powder Detergent 1 (AMSA model), 10 nM Savinase, molar ratio 10",122%
same,detergency with the inhibitor relative to without,"Savinase [7]; Powder Detergent 1 (AMSA model), 10 nM Savinase, molar ratio 15",116%
same,detergency with the inhibitor relative to without,"Savinase [7]; Powder Detergent 1 (AMSA model), 10 nM Savinase, molar ratio 20",104%
same,detergency with the inhibitor relative to without,"Savinase [7]; Powder Detergent 1 (AMSA model), 10 nM Savinase, molar ratio 30",101%
same,detergency with the inhibitor relative to without,"Savinase [7]; Powder Detergent 1 (AMSA model), 10 nM Savinase, molar ratio 50",95%
same,detergency with the inhibitor relative to without,"Savinase [7]; Powder Detergent 1 (AMSA model), 30 nM Savinase, molar ratio 0.5",106%
same,detergency with the inhibitor relative to without,"Savinase [7]; Powder Detergent 1 (AMSA model), 30 nM Savinase, molar ratio 1",105%
same,detergency with the inhibitor relative to without,"Savinase [7]; Powder Detergent 1 (AMSA model), 30 nM Savinase, molar ratio 1.5",107%
same,detergency with the inhibitor relative to without,"Savinase [7]; Powder Detergent 1 (AMSA model), 30 nM Savinase, molar ratio 2",108%
same,detergency with the inhibitor relative to without,"Savinase [7]; Powder Detergent 1 (AMSA model), 30 nM Savinase, molar ratio 3",105%
same,detergency with the inhibitor relative to without,"Savinase [7]; Powder Detergent 1 (AMSA model), 30 nM Savinase, molar ratio 5",110%
same,detergency with the inhibitor relative to without,"Savinase [7]; Powder Detergent 1 (AMSA model), 30 nM Savinase, molar ratio 10",107%
same,detergency with the inhibitor relative to without,"Savinase [7]; Powder Detergent 1 (AMSA model), 30 nM Savinase, molar ratio 15",99%
same,detergency with the inhibitor relative to without,"Savinase [7]; Powder Detergent 1 (AMSA model), 30 nM Savinase, molar ratio 20",95%
same,detergency with the inhibitor relative to without,"Savinase [7]; Powder Detergent 1 (AMSA model), 30 nM Savinase, molar ratio 30",83%
same,detergency with the inhibitor relative to without,"Savinase [7]; Powder Detergent 1 (AMSA model), 30 nM Savinase, molar ratio 50",80%
same,detergency with the inhibitor relative to without,"Savinase [7]; Powder Detergent 2 at 2.5 g/L, 30 nM Savinase, molar ratio 1.5",132%
same,detergency with the inhibitor relative to without,"Savinase [7]; Powder Detergent 2 at 2.5 g/L, 30 nM Savinase, molar ratio 3",140%
same,detergency with the inhibitor relative to without,"Savinase [7]; Powder Detergent 2 at 2.5 g/L, 30 nM Savinase, molar ratio 5",134%
